The values below come from article PMC7902338 (Pharmaceutical Research, 2021).

As a reminder, the Ki is the dissociation constant of the complex between target and ligand, obtained from inhibition or displacement. As a reminder, the pKa is the pH at which an ionisable group is half protonated.

The conditions of series [1]: mean ± SD. As to the method: Blood was centrifuged to obtain plasma, the liver and the kidneys were removed and urine was collected. Proteins were precipitated by the addition of acetonitrile (1 μL/μL plasma; 1000 μL for the liver, 200 μL for the kidneys and 0.5 μL/μL urine). All solutions were vortexed and centrifuged. […] Detection was performed by placing the TLC plates on multisensitive phosphor screens (PerkinElmer Life Sciences, Waltham, MA). The screens were scanned at 300 dpi resolution using a PerkinElmer Cyclone® Plus Phosphor Imager (Perkin-Elmer Life Sciences).
(§1) PET imaging was performed under isoflurane/air anesthesia and animals were warmed throughout the experiment while constantly monitoring body temperature and respiratory rate. A microPET Focus220 scanner (Siemens Medical Solutions, Knoxville, TN, USA) was used for PET imaging. […] List mode data were acquired with a timing window of 6 ns and an energy window of 250–750 keV. At the end of the PET scans, blood was collected from the retro-bulbar plexus and animals were killed by cervical dislocation. Blood was centrifuged to obtain plasma and aliquots of blood and plasma were counted for radioactivity in a gamma counter.

For series [2], the system named is cation transporters (OCTs, MATEs). Briefly: [^11C]Metoclopramide PET in C57BL/6 wild-type mice without and with unlabeled metoclopramide, cimetidine or sulpiride. As to the method: as §1
Using the medical image data examiner software AMIDE ([33]), the left ventricle of the heart (image-derived arterial blood curve), brain, liver, left kidney and urinary bladder were manually outlined as regions of interest on the PET images, guided by representative magnetic resonance images obtained for a few animals on a 1-T benchtop MR scanner (ICON; Bruker BioSpin GmbH), to derive concentration-time curves expressed in units of percent injected dose per mL (%ID/mL).
The area under the concentration-time curves (AUC, %ID/mL x min) was calculated for each region of interest using Prism 8 Software (GraphPad, La Jolla, CA, USA). […] VE is the y-intercept of the integration plot. CLint,urine was obtained by performing linear regression analysis of a plot of Xint,urine versus AUC0-t,kidney and calculating the slope of the regression line.
The plasma concentration was obtained by multiplying the concentration in the left ventricle of the heart by the plasma/blood radioactivity ratio, determined from the blood sample collected at the end of the PET scan.

The test system of series [3] is CYP2D6. The note with it: cimetidine ref 39; metoclopramide ref 10, 11; cited from earlier work.
In another series the target is mouse MATEs. The note with it: read-out: inhibition constant Ki; cited from earlier work.
In another series the target is mouse OCTs. The note with it: read-out: inhibition constant Ki; cited from earlier work.
The conditions of series [4]: cited from earlier work.
The test system of series [5] is CYP2D6. Also on record: method as in PMID 21740075. As to conditions: orally administered, humans, estimated; cited from earlier work.
Another series concerns human OCT1. As to conditions: cited from earlier work.
For series [6] the following is noted: single oral or intravenous dose; cited from earlier work.
In series [7] the test system is human P-glycoprotein (P-gp/ABCB1). As to conditions: cited from earlier work.
The mark [8] stands for this setting: C57BL/6 female mice, baseline, 15 min after radiotracer injection.
Setting [9] is: C57BL/6 female mice, cimetidine (150 mg/kg), 15 min.
[10] abbreviates: FVB male/female Slc22a1/2^(−/−) mice, 15 min.
[11] abbreviates: FVB male/female wild-type mice, 15 min.
[12] abbreviates: integration plot 0.4 to 4 min, range over baseline and treatment groups, C57BL/6 mice.

Read-outs that look alike come from different tables or passages of the source.

As for `CCN(CC)CCNC(=O)c1cc(Cl)c(N)cc1O[11CH3]` [[^11C]metoclopramide], the “Percentage of unchanged [^11C]metoclopramide in kidney” value stood at 64 ± 6% in series [1] (setting [8]); 96 ± 2 % in series [1] (setting [9]); 74 ± 4% in series [1] (C57BL/6 female mice, co-administration of unlabeled metoclopramide (5 mg/kg), 15 min); 72 ± 8% in series [1] (setting [10]); 70 ± 20% in [1] (setting [11]). Besides, the “Percentage of unchanged [^11C]metoclopramide in urine” value in series [1] (setting [8]) came out at 29 ± 4%; in series [1] (setting [9]), 87 ± 4 %; in series [1] (C57BL/6 female mice, sulpiride (25 mg/kg), 15 min) it was 36 ± 5%; in series [1] (setting [10]) it was 48 ± 10%; in [1] (setting [11]), 64 ± 22%. Besides, the “Maximum amount of radioactivity in the kidneys” value in series [2] (C57BL/6 wild-type mice, assuming average mouse organ volumes from literature) is listed as “approximately 17 % of the injected dose”. Besides, the “Time to maximum concentration of radioactivity in the kidneys and liver” value in [2] (C57BL/6 wild-type mice, i.v. microdose) is reported as at most 5 min. Moreover, the “Amount of radioactivity excreted into the urinary bladder” value in [2] (end of the 90-min PET scan) was “approximately 45 % of the injected dose”. Further, the “kuptake,kidney (rate constant for uptake of total radioactivity from blood into the kidneys)” value in [2] (setting [12]) was 0.5–1 mL/min/mL kidney. In [2] (setting [12]), the “kuptake,liver (rate constant for uptake of total radioactivity from blood into the liver)” value is on record as 0.2–0.6 mL/min/mL liver. Also, the “Decrease of urinary excretion” value in [2] (the different investigated treatments vs baseline, wild-type mice) is “up to 3.8 fold”.
As for `CN/C(=N/CCSCc1nc[nH]c1C)NC#N` [cimetidine], the CYP2D6 inhibition entry in the series on CYP2D6 [3] is “potent”. Also, the figures for the Ki on mouse MATEs and at mouse OCTs were 1 to 4 µM and 54 to 143 µM, respectively.
As for `CCN(CC)CCNC(=O)c1cc(Cl)c(N)cc1OC` [metoclopramide], in series [4], the pKa is reported as 9.71. Further, the “Fraction in protonated form” value in series [4] (physiological pH) is given as “more than 99%”. Moreover, in the series with CYP2D6 [5], the “Share of total clearance accounted for by CYP2D6 metabolism” value is listed as 44%. In addition, the CYP2D6 inhibition entry in the series on CYP2D6 [3] is listed as “potent inhibitor”. In the series on human OCT1 (human OCT1 transfected cell line), the “Share of cellular uptake related to OCT1 activity” value was 45%. For the same compound, the “Substrate of human OCT1” value in the series on human OCT1 (in vitro) was “substrate”. Also, in series [6], the “Fraction of dose excreted unchanged in urine” value is “Approximately 20%”. Further, in series [7], the “Substrate of human P-gp” value is listed as “weak substrate”.
